The values below are quoted from earlier work in paper PMC3074590 (Science (New York, N.Y.), 2010).

The data set deals with CXCR4. The note with it: characterized previously; no reference printed at this statement.

With `CC1(C)CN2C(CSC(=NC3CCCCC3)NC3CCCCC3)=CSC2=N1` [IT1t], the “mode of inhibition of CXCL12” value is listed as “competitive inhibitors of CXCL12”.
